Results as given in PMC8241168, “Cholesterol–PEG comodified poly (N-butyl) cyanoacrylate nanoparticles for brain delivery: in vitro and in vivo evaluations” (Drug Delivery, 2017).

Experiments:
bEnd.3 cells = assay: Uptake of C6 CLS-PEG NPs by bEnd.3 cells; type: cell-based, mouse; conditions: 20–100 μg/mL, 37 °C, 30 min to 4 h
Description: BEnd. 3 cells were seeded into a 6-well plate and cultured for 24 h. Then, the medium was replaced with different concentrations (20–100 μg/mL) of free C6 or CLS-PEG NPs encapsulated with C6, and incubated at 37 °C for 2 h. To study the effects of incubation time on CLS-PEG NPs uptake, the CLS-PEG NPs loaded C6 (50 μg/mL) and the free C6 solution were added into the wells, and the plate was incubated at 37 °C for 30 min, 1 h, 2 h, or 4 h. At the end of the experiment, the cells were washed with ice-cold PBS three times. Subsequently, the cells were lysed with cell lysate (Beijing Saichi Biotechnology Co., Ltd., China). The quantitative measurement of intracellular C6 in bEnd.3 cell lysates was analyzed by a fluorescence microplate reader as described earlier. Total cell protein concentrations of the bEnd.3 cells were determined using a BCA protein assay (Beijing Kangwei Century Biotechnology Co., Ltd., China). The uptake of CLS-PEG NPs by bEnd.3 cells was calculated and expressed as the amount of CLS-PEG NPs (μg) taken up per mg of cell protein.

[1] = Pharmacokinetic study, plasma C6 after IV administration; type: in vivo; conditions: rats, IV 0.5 mg/kg
Description: Wistar rats (180–200 g) were obtained from the Institute of Laboratory Animal Science, Chinese Academy of Medical Sciences, Beijing, China, and all animal experiments were performed in accordance with the regulations of the Animal Care and Use Committee of the Chinese Academy of Medical Sciences. […] A standard diet of food and water was supplied ad libitum during the experiments. A polyethylene catheter (Portex, Hythe, UK) was inserted through the right jugular veins of all rats one day prior to the pharmacokinetic experiment, and flushed with 100 U/mL heparin in 0.9% saline. […] Subsequently, 100 μL of plasma was obtained by centrifugation at 5000 rpm for 7 min at 0 °C, and the serum was collected. The measurement of C6 in the samples was analyzed by a fluorescence microplate reader as described earlier.

[2] = Tissue distribution studies after IV administration; type: in vivo, rats; conditions: IV 0.5 mg/kg; for Tmax / AUC0-t / Cmax: C6, rats; for AUC0-t / Cmax: n = 3
Description: Wistar rats (180–200 g) were obtained from the Institute of Laboratory Animal Science, Chinese Academy of Medical Sciences, Beijing, China, and all animal experiments were performed in accordance with the regulations of the Animal Care and Use Committee of the Chinese Academy of Medical Sciences. […] A standard diet of food and water was supplied ad libitum during the experiments. […] The samples were stored at −20 °C until further analysis. The drug-targeting index (DTI) is considered an important parameter for tissue targeting efficiency, and was calculated using the following formula: DTI=AUCx/AUCp(NPs)/AUCx/AUCP(Free drug) Where “AUCx” is the AUC of tissue x, and “AUCp” is the AUC of the plasma.

[3] = Specificity to the brain, confocal laser scanning microscopy of brain sections; type: in vivo; conditions: rats, IV, 0.5 h after dosing
Description: Subsequently, the brain tissues were removed, washed with PBS, and fixed in 4% formaldehyde solution. After snap freezing in liquid nitrogen, the samples were embedded in […]. compound (Sakura Finetechnical, Tokyo, Japan) and cut into thin sections (10 μm). The slices were stained for cell nuclei with DAPI for 15 min in the dark and then washed three times with cold PBS. The sample was monitored by confocal laser scanning microscopy (Zeiss LSM710, Göttingen, Germany). ZEN Image Software 2012 was used to perform the image recording and image analysis. The image included 512 × 512 pixels measuring 2.77 × 2.77 μm^2.

For `CCN(CC)c1ccc2cc(-c3nc4ccccc4s3)c(=O)oc2c1` [Free drug, coumarin-6], the “cellular uptake by bEnd.3 cells” value (bEnd.3 cells) was “only minimally entered the cells”, the AUC0-t ([1]; C6 in plasma, n = 6) was 15.8 ± 2.4 µg·min/mL and the “AUC0-∞” value ([1]; C6 in plasma, n = 6) was 16.0 ± 2.3 µg·min/mL. The C0 ([1]; C6 in plasma, n = 6) was 828.4 ± 139.0 ng/mL, the CL ([1]; C6 in plasma, n = 6) was 6.4 ± 0.9 mL/min and the “Vd, λz” value ([1]; C6 in plasma, n = 6) was 0.6 ± 0.3 L. The “t1/2, λz” value ([1]; C6 in plasma, n = 6) was 60.1 ± 24.0 min, the “time after injection at which C6 was undetectable in plasma” value [1] was 4 h and the Tmax ([2]; Brain) was 30 min. It also gave an AUC0-t ([2]; Brain) of 3.84 ± 0.21 µg·min/mL, a Cmax ([2]; Brain) of 45.64 ± 2.25 ng/g and a Tmax ([2]; Heart) of 15 min. For the same compound, the AUC0-t ([2]; Heart) was 8.45 ± 0.93 µg·min/mL, the Cmax ([2]; Heart) was 113.89 ± 16.48 ng/g and the Tmax ([2]; Kidney) was 30 min. It also gave an AUC0-t ([2]; Kidney) of 2.56 ± 0.44 µg·min/mL, a Cmax ([2]; Kidney) of 22.20 ± 1.91 ng/g and a Tmax ([2]; Liver) of 15 min. The AUC0-t ([2]; Liver) was 141.71 ± 13.25 µg·min/mL, the Cmax ([2]; Liver) was 2685.53 ± 356.67 ng/g and the Tmax ([2]; Lung) was 30 min. For the same compound, the AUC0-t ([2]; Lung) was 63.88 ± 5.62 µg·min/mL, the Cmax ([2]; Lung) was 900.02 ± 67.86 ng/g and the Tmax ([2]; Spleen) was 15 min. For the same compound, the AUC0-t ([2]; Spleen) was 271.02 ± 16.03 µg·min/mL, the Cmax ([2]; Spleen) was 3848.83 ± 339.27 ng/g and the “distribution of C6 in the brain” value ([2]; rats) was “very little distribution in the brain”. The “C6 fluorescent signal in the brain” value [3] was “too weak to be distinguished”.
